Experiments:
[1] = system: gelatinolytic urinary MMPs; conditions: 20 mM EDTA; urine of CCI rats, day 0, 1 and 28
Method: The urine samples collected at day 0 (prior to injury) and days 1 and 28 post-CCI (n=4-6/group) were equilibrated in MMP buffer, pH 7.5 and then the protein concentrations were determined using the Bradford assay and made even by sample dilution in MMP buffer, pH 7.5. Dialyzed urine samples were analyzed by gelatin zymography. […] The urine samples collected at day 0 (CTR) and 28 post-CCI (CCI) (n=4-5/group) were equilibrated in MMP buffer, pH 7.5, and then the protein concentrations were determined using the Bradford assay. Dialyzed urine samples were co-incubated with the fluorescent Mca-PLGL-Dpa-AR-NH2 MMP substrate in the presence and the absence of GM6001, a broad-spectrum hydroxamate MMP inhibitor.
The dialyzed rat urine samples equilibrated in MMP buffer, pH 7.5, the crude nerve extracts and the MMP-9 samples isolated from sciatic nerve were analyzed by gelatin zymography in a 10% acrylamide-0.1% gelatin gel. […] Where indicated, gels were incubated in 20 mM EDTA to inactivate MMP activity.

[2] = target: T1, α2δ1 subunit of the voltage-gated Ca^2+ channel (Homo sapiens, UniProt P54289); conditions: animal studies; Ohashi et al. 2008; cited from earlier work
T1 construct: PD-217,014 produces visceral analgesic effects in animal studies

[3] = system: female rats; conditions: single intra-neural injection into intact sciatic nerve, Liu et al. 2012; cited from earlier work

T1 sequence (P54289 25-1103): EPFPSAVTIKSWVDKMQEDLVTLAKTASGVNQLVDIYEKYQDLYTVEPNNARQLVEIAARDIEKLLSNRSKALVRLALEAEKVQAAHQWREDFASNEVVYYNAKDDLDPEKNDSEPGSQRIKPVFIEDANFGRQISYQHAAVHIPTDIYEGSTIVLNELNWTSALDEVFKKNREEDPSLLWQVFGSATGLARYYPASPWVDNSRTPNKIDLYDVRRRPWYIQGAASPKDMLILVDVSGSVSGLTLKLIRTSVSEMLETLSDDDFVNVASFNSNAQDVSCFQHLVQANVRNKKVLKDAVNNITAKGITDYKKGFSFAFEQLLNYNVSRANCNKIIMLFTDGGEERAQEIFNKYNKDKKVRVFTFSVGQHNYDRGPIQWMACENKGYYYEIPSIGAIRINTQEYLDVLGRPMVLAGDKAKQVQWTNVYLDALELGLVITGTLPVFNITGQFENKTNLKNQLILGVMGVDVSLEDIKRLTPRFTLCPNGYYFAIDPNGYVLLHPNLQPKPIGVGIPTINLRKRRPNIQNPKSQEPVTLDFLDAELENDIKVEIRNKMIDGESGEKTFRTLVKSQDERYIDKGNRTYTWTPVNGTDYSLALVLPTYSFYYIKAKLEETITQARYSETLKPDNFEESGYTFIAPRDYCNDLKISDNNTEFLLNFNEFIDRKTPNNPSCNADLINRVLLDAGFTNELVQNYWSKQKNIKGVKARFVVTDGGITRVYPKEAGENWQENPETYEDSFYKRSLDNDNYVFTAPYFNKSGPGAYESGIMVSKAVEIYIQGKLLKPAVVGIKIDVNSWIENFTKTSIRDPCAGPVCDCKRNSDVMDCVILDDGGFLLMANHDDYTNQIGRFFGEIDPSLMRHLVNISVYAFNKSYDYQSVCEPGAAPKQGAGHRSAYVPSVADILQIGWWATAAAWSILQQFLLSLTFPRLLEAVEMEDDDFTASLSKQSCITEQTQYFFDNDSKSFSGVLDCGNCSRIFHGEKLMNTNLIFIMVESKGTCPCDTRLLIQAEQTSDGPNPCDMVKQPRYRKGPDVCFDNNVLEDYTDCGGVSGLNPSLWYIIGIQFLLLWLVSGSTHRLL
T1 sequence (P54289 957-1103): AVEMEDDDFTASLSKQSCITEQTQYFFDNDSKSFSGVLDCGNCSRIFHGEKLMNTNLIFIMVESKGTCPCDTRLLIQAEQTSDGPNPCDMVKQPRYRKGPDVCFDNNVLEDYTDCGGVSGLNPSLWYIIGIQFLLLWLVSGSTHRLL

In the case of O=C(O)CN(CCN(CC(=O)O)CC(=O)O)CC(=O)O [EDTA], the “effect on MMP-related gelatinolytic bands” value [1] is reported as “repressed all of the MMP-related gelatinolytic bands”.

In the case of NC[C@@]1(CC(=O)O)C[C@H]2CC[C@H]2C1 [PD-217,014], the “visceral analgesic effects, potency and efficacy compared with gabapentin” value [2] is given as “higher potency and efficacy than gabapentin”.

For “ENPVVHFFKNIVTPRTPPPSQ (synthetic wild-type (MBP84-104-WT)) [synthetic algesic myelin basic protein-derived peptide, region 84-104 of human MBP]”, the “mechanical allodynia after injection” value [3] is listed as “causes a robust and long-lasting mechanical allodynia”.
